Experimental data: ChEMBL document CHEMBL1147864, “Synthesis of new sugar derivatives from Stachys sieboldi Miq and antibacterial evaluation against Mycobacterium tuberculosis, Mycobacterium avium, and Staphylococcus aureus” (2007)
≈ marks a conversion by molar mass, not a printed value.

Legend:
Type in all cases: functional
Conditions in all cases: 336 h
Staphylococcus aureus [1] = experiment: Antibacterial activity against Staphylococcus aureus after 2 weeks by broth dilution method
[2] = tested on: Mycobacterium tuberculosis; experiment: Antibacterial activity against Mycobacterium tuberculosis H37Rv after 2 weeks by broth dilution method
Staphylococcus aureus [3] = experiment: Antibacterial activity against methicillin-resistant Staphylococcus aureus 908 after 2 weeks by broth dilution method
[4] = tested on: Mycobacterium tuberculosis; experiment: Antimycobacterial activity against Mycobacterium tuberculosis A-3-16 after 2 weeks by broth dilution method
Staphylococcus aureus [5] = experiment: Antibacterial activity against methicillin-resistant Staphylococcus aureus 873 after 2 weeks by broth dilution method
[6] = tested on: Mycobacterium tuberculosis; experiment: Antimycobacterial activity against Mycobacterium tuberculosis A-2-5 after 2 weeks by broth dilution method
[7] = tested on: Mycobacterium tuberculosis; experiment: Antimycobacterial activity against Mycobacterium tuberculosis A-1-2 after 2 weeks by broth dilution method
[8] = tested on: Mycobacterium tuberculosis; experiment: Antimycobacterial activity against Mycobacterium tuberculosis A-3-9 after 2 weeks by broth dilution method
[9] = tested on: Mycobacterium tuberculosis; experiment: Antimycobacterial activity against Mycobacterium tuberculosis A-3-12 after 2 weeks by broth dilution method
[10] = tested on: Mycobacterium tuberculosis; experiment: Antimycobacterial activity against Mycobacterium tuberculosis A-3-20 after 2 weeks by broth dilution method
[11] = tested on: Mycobacterium tuberculosis; experiment: Antimycobacterial activity against Mycobacterium tuberculosis A-1-3 after 2 weeks by broth dilution method
[12] = tested on: Mycobacterium tuberculosis; experiment: Antimycobacterial activity against Mycobacterium tuberculosis A-3-11 after 2 weeks by broth dilution method
[13] = tested on: Mycobacterium tuberculosis; experiment: Antimycobacterial activity against Mycobacterium tuberculosis A-3-17 after 2 weeks by broth dilution method
Mycobacterium avium = experiment: Antibacterial activity against Mycobacterium avium 724S after 2 weeks by broth dilution method
[14] = tested on: Mycobacterium tuberculosis; experiment: Antimycobacterial activity against Mycobacterium tuberculosis A-3-19 after 2 weeks by broth dilution method
[15] = tested on: Mycobacterium tuberculosis; experiment: Antimycobacterial activity against Mycobacterium tuberculosis A-3-5 after 2 weeks by broth dilution method
[16] = tested on: Mycobacterium tuberculosis; experiment: Antimycobacterial activity against Mycobacterium tuberculosis A-1-1 after 2 weeks by broth dilution method
[17] = tested on: Mycobacterium tuberculosis; experiment: Antimycobacterial activity against Mycobacterium tuberculosis A-3-21 after 2 weeks by broth dilution method
Staphylococcus aureus [18] = experiment: Antibacterial activity against methicillin-resistant Staphylococcus aureus 906 after 2 weeks by broth dilution method
[19] = tested on: Mycobacterium tuberculosis; experiment: Antimycobacterial activity against Mycobacterium tuberculosis A-3-2 after 2 weeks by broth dilution method
[20] = tested on: Mycobacterium tuberculosis; experiment: Antimycobacterial activity against Mycobacterium tuberculosis A-3-15 after 2 weeks by broth dilution method
Staphylococcus aureus [21] = experiment: Antibacterial activity against methicillin-resistant Staphylococcus aureus 910 after 2 weeks by broth dilution method
[22] = tested on: Mycobacterium tuberculosis; experiment: Antimycobacterial activity against Mycobacterium tuberculosis A-3-6 after 2 weeks by broth dilution method
[23] = tested on: Mycobacterium tuberculosis; experiment: Antimycobacterial activity against Mycobacterium tuberculosis A-3-1 after 2 weeks by broth dilution method
[24] = tested on: Mycobacterium tuberculosis; experiment: Antimycobacterial activity against Mycobacterium tuberculosis A-3-22 after 2 weeks by broth dilution method

OC[C@H](O)[C@@H](O)[C@H](O)[C@H](O)CO[C@H]1O[C@H](CO[C@H]2O[C@H](CO)[C@H](O)[C@H](O)[C@H]2O)[C@H](O)[C@H](O)[C@H]1O
MIC (Staphylococcus aureus [1]): > 800 µg/mL | MIC [2]: > 800 µg/mL

CCCCO[C@@H]1O[C@H](CO[C@H]2O[C@H](CO[C@H]3O[C@H](COC(C)=O)[C@H](OC(C)=O)[C@H](OC(C)=O)[C@H]3OC(C)=O)[C@H](OC(C)=O)[C@H](OC(C)=O)[C@H]2OC(C)=O)[C@@H](OC(C)=O)[C@H](OC(C)=O)[C@H]1OC(C)=O
MIC (Staphylococcus aureus [1]): > 800 µg/mL | MIC [2]: > 800 µg/mL

C=CCO[C@@H]1O[C@H](CO[C@H]2O[C@H](CO[C@H]3O[C@H](COC(C)=O)[C@H](OC(C)=O)[C@H](OC(C)=O)[C@H]3OC(C)=O)[C@H](OC(C)=O)[C@H](OC(C)=O)[C@H]2OC(C)=O)[C@@H](OC(C)=O)[C@H](OC(C)=O)[C@H]1OC(C)=O
MIC (Staphylococcus aureus [3]; read-out: MIC): 7.54 µg/mL (≈ 7.81 µM) | MIC [4]: 6.25 µg/mL (≈ 6.48 µM) | MIC (Staphylococcus aureus [5]): 3.77 µg/mL (≈ 3.91 µM) | MIC [6]: 12.5 µg/mL (≈ 13 µM) | MIC [7]: 6.25 µg/mL (≈ 6.48 µM) | MIC (Staphylococcus aureus [1]): 3.13 µg/mL (≈ 3.24 µM) | MIC [8]: 3.13 µg/mL (≈ 3.24 µM) | MIC [9]: 6.25 µg/mL (≈ 6.48 µM) | MIC [10]: 6.25 µg/mL (≈ 6.48 µM) | MIC [11]: 6.25 µg/mL (≈ 6.48 µM) | MIC [12]: 3.13 µg/mL (≈ 3.24 µM) | MIC [13]: 3.13 µg/mL (≈ 3.24 µM) | MIC (Mycobacterium avium): 3.13 µg/mL (≈ 3.24 µM) | MIC [14]: 3.13 µg/mL (≈ 3.24 µM) | MIC [15]: 6.25 µg/mL (≈ 6.48 µM) | MIC [16]: 6.25 µg/mL (≈ 6.48 µM) | MIC [17]: 6.25 µg/mL (≈ 6.48 µM) | MIC (Staphylococcus aureus [18]): 15.1 µg/mL (≈ 15.6 µM) | MIC [19]: 25 µg/mL (≈ 25.9 µM) | MIC [2]: 3.13 µg/mL (≈ 3.24 µM) | MIC [20]: 3.13 µg/mL (≈ 3.24 µM) | MIC (Staphylococcus aureus [21]): 15.1 µg/mL (≈ 15.6 µM) | MIC [22]: 6.25 µg/mL (≈ 6.48 µM) | MIC [23]: 25 µg/mL (≈ 25.9 µM) | MIC [24]: 3.13 µg/mL (≈ 3.24 µM)

CO[C@@H]1O[C@H](CO[C@H]2O[C@H](CO[C@H]3O[C@H](COC(C)=O)[C@H](OC(C)=O)[C@H](OC(C)=O)[C@H]3OC(C)=O)[C@H](OC(C)=O)[C@H](OC(C)=O)[C@H]2OC(C)=O)[C@@H](OC(C)=O)[C@H](OC(C)=O)[C@H]1OC(C)=O
MIC (Staphylococcus aureus [1]): > 800 µg/mL | MIC [2]: > 800 µg/mL

C#CCO[C@@H]1O[C@H](CO[C@H]2O[C@H](CO[C@H]3O[C@H](COC(C)=O)[C@H](OC(C)=O)[C@H](OC(C)=O)[C@H]3OC(C)=O)[C@H](OC(C)=O)[C@H](OC(C)=O)[C@H]2OC(C)=O)[C@@H](OC(C)=O)[C@H](OC(C)=O)[C@H]1OC(C)=O
MIC (Staphylococcus aureus [1]): > 800 µg/mL | MIC [2]: > 800 µg/mL

C/C=C/CO[C@@H]1O[C@H](CO[C@H]2O[C@H](CO[C@H]3O[C@H](COC(C)=O)[C@H](OC(C)=O)[C@H](OC(C)=O)[C@H]3OC(C)=O)[C@H](OC(C)=O)[C@H](OC(C)=O)[C@H]2OC(C)=O)[C@@H](OC(C)=O)[C@H](OC(C)=O)[C@H]1OC(C)=O
MIC (Staphylococcus aureus [1]): > 400 µg/mL | MIC [2]: > 400 µg/mL

C=CCO[C@H]1O[C@H](CO[C@H]2O[C@H](CO[C@H]3O[C@H](COC(C)=O)[C@H](OC(C)=O)[C@H](OC(C)=O)[C@H]3OC(C)=O)[C@H](OC(C)=O)[C@H](OC(C)=O)[C@H]2OC(C)=O)[C@@H](OC(C)=O)[C@H](OC(C)=O)[C@H]1OC(C)=O
MIC (Staphylococcus aureus [1]): > 800 µg/mL | MIC [2]: > 800 µg/mL

CCO[C@@H]1O[C@H](CO[C@H]2O[C@H](CO[C@H]3O[C@H](COC(C)=O)[C@H](OC(C)=O)[C@H](OC(C)=O)[C@H]3OC(C)=O)[C@H](OC(C)=O)[C@H](OC(C)=O)[C@H]2OC(C)=O)[C@@H](OC(C)=O)[C@H](OC(C)=O)[C@H]1OC(C)=O
MIC (Staphylococcus aureus [1]): > 800 µg/mL | MIC [2]: > 800 µg/mL

CCCO[C@@H]1O[C@H](CO[C@H]2O[C@H](CO[C@H]3O[C@H](COC(C)=O)[C@H](OC(C)=O)[C@H](OC(C)=O)[C@H]3OC(C)=O)[C@H](OC(C)=O)[C@H](OC(C)=O)[C@H]2OC(C)=O)[C@@H](OC(C)=O)[C@H](OC(C)=O)[C@H]1OC(C)=O
MIC (Staphylococcus aureus [1]): > 800 µg/mL | MIC [2]: > 800 µg/mL

CC(=O)OC[C@H]1O[C@H](OC[C@H]2O[C@H](OC[C@H]3O[C@@H](OC(C)C)[C@H](OC(C)=O)[C@@H](OC(C)=O)[C@@H]3OC(C)=O)[C@H](OC(C)=O)[C@@H](OC(C)=O)[C@H]2OC(C)=O)[C@H](OC(C)=O)[C@@H](OC(C)=O)[C@H]1OC(C)=O
MIC (Staphylococcus aureus [1]): > 800 µg/mL | MIC [2]: > 800 µg/mL

C=CCO[C@@H]1O[C@H](CO[C@H]2O[C@H](CO[C@H]3O[C@H](CO)[C@H](O)[C@H](O)[C@H]3O)[C@H](O)[C@H](O)[C@H]2O)[C@@H](O)[C@H](O)[C@H]1O
MIC (Staphylococcus aureus [3]; read-out: MIC): > 100 µg/mL | MIC (Staphylococcus aureus [5]): 100 µg/mL (≈ 184 µM) | MIC (Staphylococcus aureus [1]): > 100 µg/mL | MIC (Mycobacterium avium): > 100 µg/mL | MIC (Staphylococcus aureus [18]): > 100 µg/mL | MIC [2]: > 100 µg/mL | MIC (Staphylococcus aureus [21]): > 100 µg/mL

CC(=O)OC[C@H](OC(C)=O)[C@@H](OC(C)=O)[C@H](OC(C)=O)[C@@H](CO[C@H]1O[C@H](CO[C@H]2O[C@H](COC(C)=O)[C@H](OC(C)=O)[C@H](OC(C)=O)[C@H]2OC(C)=O)[C@H](OC(C)=O)[C@H](OC(C)=O)[C@H]1OC(C)=O)OC(C)=O
MIC (Staphylococcus aureus [1]): > 800 µg/mL | MIC [2]: > 800 µg/mL

CN[C@@H]1[C@H](O[C@H]2[C@H](O[C@H]3[C@H](O)[C@@H](O)[C@H](N=C(N)N)[C@@H](O)[C@@H]3N=C(N)N)O[C@@H](C)[C@]2(O)C=O)O[C@@H](CO)[C@H](O)[C@H]1O (stereo in doubt) [STREPTOMYCIN]
MIC (Staphylococcus aureus [5]): > 100 µg/mL | MIC (Staphylococcus aureus [1]): 100 µg/mL (≈ 172 µM) | MIC (Mycobacterium avium): 0.4 µg/mL (≈ 0.688 µM) | MIC (Staphylococcus aureus [18]): 100 µg/mL (≈ 172 µM) | MIC [2]: 0.2 µg/mL (≈ 0.344 µM)

C=CCO [ALLYL ALCOHOL]
MIC (Staphylococcus aureus [1]): > 400 µg/mL | MIC [2]: > 400 µg/mL

C=CCN=C=S [ALLYL ISOTHIOCYANATE]
MIC (Staphylococcus aureus [1]): > 800 µg/mL | MIC [2]: > 800 µg/mL

CC[C@@H](CO)NCCN[C@@H](CC)CO [ETHAMBUTOL]
MIC (Staphylococcus aureus [3]; read-out: MIC): > 100 µg/mL | MIC (Staphylococcus aureus [5]): > 100 µg/mL | MIC (Staphylococcus aureus [1]): > 100 µg/mL | MIC (Mycobacterium avium): 3 µg/mL (≈ 14.7 µM) | MIC (Staphylococcus aureus [18]): > 100 µg/mL | MIC [2]: 1.25 µg/mL (≈ 6.12 µM) | MIC (Staphylococcus aureus [21]): > 100 µg/mL

NNC(=O)c1ccncc1 [ISONIAZID]
MIC (Staphylococcus aureus [3]; read-out: MIC): > 100 µg/mL | MIC (Staphylococcus aureus [5]): > 100 µg/mL | MIC (Staphylococcus aureus [1]): > 100 µg/mL | MIC (Mycobacterium avium): 12.5 µg/mL (≈ 91.1 µM) | MIC [2]: 0.075 µg/mL (≈ 0.547 µM) | MIC (Staphylococcus aureus [21]): > 100 µg/mL

CO[C@H]1/C=C/O[C@@]2(C)Oc3c(C)c(O)c4c(O)c(c(/C=N/N5CCN(C)CC5)c(O)c4c3C2=O)NC(=O)/C(C)=C\C=C\[C@H](C)[C@H](O)[C@@H](C)[C@@H](O)[C@@H](C)[C@H](OC(C)=O)[C@@H]1C [RIFAMPIN]
MIC (Staphylococcus aureus [3]): 0.004 µg/mL (≈ 0.00486 µM) | MIC (Staphylococcus aureus [5]): 0.004 µg/mL (≈ 0.00486 µM) | MIC (Staphylococcus aureus [1]): 0.004 µg/mL (≈ 0.00486 µM) | MIC (Mycobacterium avium): 0.004 µg/mL (≈ 0.00486 µM) | MIC (Staphylococcus aureus [18]): 0.004 µg/mL (≈ 0.00486 µM) | MIC [2]: > 0.008 µg/mL | MIC (Staphylococcus aureus [21]): 0.004 µg/mL (≈ 0.00486 µM)
